From PMC4459529 (Chemistry & biology, 2015)

Biological target: monoacylglycerol lipase (MGL) (Rattus norvegicus, UniProt Q8R431)
Assay: biochemical

Sequence of monoacylglycerol lipase (MGL) (Q8R431 whole entry): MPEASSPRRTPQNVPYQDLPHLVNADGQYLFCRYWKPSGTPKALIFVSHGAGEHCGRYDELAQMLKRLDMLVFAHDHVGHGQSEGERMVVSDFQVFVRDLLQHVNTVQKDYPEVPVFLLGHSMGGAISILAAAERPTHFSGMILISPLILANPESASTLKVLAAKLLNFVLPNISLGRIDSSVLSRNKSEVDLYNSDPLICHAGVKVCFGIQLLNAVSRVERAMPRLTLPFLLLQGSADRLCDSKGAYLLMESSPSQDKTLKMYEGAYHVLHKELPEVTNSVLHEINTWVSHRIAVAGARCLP

IC50: 8.2 ± 1.3 µM
SMILES: OO [hydrogen peroxide]
